# Source: patent US6781000B1, “Alpha-ketoamide inhibitors of 20S proteasome” (CV Theurapeutics, Inc., priority 1998, dated 2004)
# Biological target: T1, chymotrypsin-like activity of 20S proteasome (Bos taurus, UniProt Q2TBX6+Q32KL2)
# T1 construct: was purified to homogeneity from bovine brain according to published methods; from tissue; host or cells: bovine brain
# Experiment: 20S proteasome chymotryptic activity inhibition assay (Suc-Leu-Leu-Val-Tyr-AMC cleavage)
# Assay type: biochemical
# Settings: 2 μg 20S proteasome from bovine brain, 50 μM fluorogenic substrate, 15 minutes at 37° C., pH7.5
# Procedure: Compounds of this invention prepared according to the method of Example 1 were tested as follows. The 20S catalytic subunit of the proteasome (also known as the multicatalytic proteinase complex) was purified to homogeneity from bovine brain according to published methods (Wilk S. and Orlowski,M 1983, 40 842 J.Neurochem). The chymotryptic activity of the complex is measured by the increase in fluorescence following cleavage of the substrate peptide succinyl-leucine-leucine-valine-tyrosine-7-amino-4methyl coumarin. The standard in vitro assay consists of 2 μg 20S proteasome, 0.1-100 μg/ml proteasome inhibitor in 200 μl 50 mM HEPES, containing 0.1% sodium dodecyl sulphate, pH7.5. The proteolytic reaction is initiated by the addition of 50 μM flourogenic peptide substrate and allowed to progress for 15 minutes at 37° C. The reaction is terminated by the addition of 100 μL of 100 mM acetate buffer, pH4.0. The rate of proteolysis is directly proportional to the amount of liberated aminomethylcoumarin which is measured by fluorescent spectroscopy (EX 370 nm, EM 430 nm).
SMILES,IC50 for the inhibition of the chymotrypsin-like activity of 20S proteasome [µg/mL],IC50 [µM]
CC(C)CC(NC(=O)C(Cc1cccnc1)NC(=O)C(=O)Cc1c[nH]c2ccccc12)C(=O)NC(C)C(=O)O (centres unmarked) [Compound 79],>10,
CC(C)CC(NC(=O)C(Cc1ccc2ccccc2c1)NC(=O)C(=O)Cc1c[nH]c2ccccc12)C(=O)NC(C)C(=O)O (centres unmarked) [Compound 80],>10,
CC(C)CC(NC(=O)C(Cc1ccc(-c2ccccc2)cc1)NC(=O)C(=O)Cc1c[nH]c2ccccc12)C(=O)NC(C)C(=O)O (centres unmarked) [Compound 81],,> 16.4
CC(C)CC(NC(=O)CNC(=O)C(=O)Cc1c[nH]c2ccccc12)C(=O)NC(Cc1ccc(O)cc1)C(=O)O (centres unmarked) [Compound 82],,> 18.6
CC(C)CC(NC(=O)C(NC(=O)C(=O)Cc1c[nH]c2ccccc12)C(C)O)C(=O)NC(Cc1ccc(O)cc1)C(=O)O (centres unmarked) [Compound 83],>10,
CC(C)CC(NC(=O)CCNC(=O)C(=O)Cc1c[nH]c2ccccc12)C(=O)NC(Cc1ccc(O)cc1)C(=O)O (centres unmarked) [Compound 84],>10,
CC(C)CC(NC(=O)C(=O)Cc1c[nH]c2ccccc12)C(=O)NC(CC(C)C)C(=O)NCC(=O)O (centres unmarked) [Compound 85],>10,
CC(C)CC(NC(=O)C(=O)Cc1c[nH]c2ccccc12)C(=O)NC(CC(C)C)C(=O)NC(Cc1ccc(O)cc1)C(=O)O (centres unmarked) [Compound 88],,> 16.9
CC(C)CC(NC(=O)CNC(=O)C(=O)Cc1c[nH]c2ccccc12)C(=O)NC(CO)C(=O)O (centres unmarked) [Compound 89],>10,
CC(C)CC(NC(=O)CCNC(=O)C(=O)Cc1c[nH]c2ccccc12)C(=O)NC(CO)C(=O)O (centres unmarked) [Compound 90],>10,
CCCC[C@H](NC(=O)C(=O)Cc1c[nH]c2ccccc12)C(=O)N[C@H](CC(C)C)C(=O)N[C@@H](CO)C(=O)O [Compound 91],,> 19.4
CC(C)CC(NC(=O)C(Cc1ccccc1)NC(=O)C(=O)Cc1c[nH]c2ccccc12)C(=O)NC(CO)C(=O)O (centres unmarked) [Compound 92],>10,
CC(C)CC(NC(=O)C(NC(=O)C(=O)Cc1c[nH]c2ccccc12)C(C)O)C(=O)NC(CO)C(=O)O (centres unmarked) [Compound 93],>10,
CC(C)CC(NC(=O)C(C)NC(=O)C(=O)Cc1c[nH]c2ccccc12)C(=O)NC(CO)C(=O)O (centres unmarked) [Compound 94],>10,
CC(C)CC(NC(=O)C(CC(=O)O)NC(=O)C(=O)Cc1c[nH]c2ccccc12)C(=O)NC(CO)C(=O)O (centres unmarked) [Compound 95],>10,
CC(C)CC(NC(=O)C(NC(=O)C(=O)Cc1c[nH]c2ccccc12)C(C)C)C(=O)NC(CO)C(=O)O (centres unmarked) [Compound 96],>10,
CCCC(NC(=O)C(=O)Cc1c[nH]c2ccccc12)C(=O)NC(CC(C)C)C(=O)NC(CO)C(=O)O (centres unmarked) [Compound 97],>10,
CC(C)CC(NC(=O)C(Cc1ccc(O)cc1)NC(=O)C(=O)Cc1c[nH]c2ccccc12)C(=O)NC(CO)C(=O)O (centres unmarked) [Compound 98],>10,
CCC(C)C(NC(=O)C(=O)Cc1c[nH]c2ccccc12)C(=O)NC(CC(C)C)C(=O)NC(CO)C(=O)O (centres unmarked) [Compound 99],>10,
CC(C)CC(NC(=O)C(CC1CCCCC1)NC(=O)C(=O)Cc1c[nH]c2ccccc12)C(=O)NC(CO)C(=O)O (centres unmarked) [Compound 100],>10,
CC(C)CC(NC(=O)C(Cc1cccnc1)NC(=O)C(=O)Cc1c[nH]c2ccccc12)C(=O)NC(CO)C(=O)O (centres unmarked) [Compound 101],>10,
CC(C)CC(NC(=O)C(Cc1ccc(-c2ccccc2)cc1)NC(=O)C(=O)Cc1c[nH]c2ccccc12)C(=O)NC(CO)C(=O)O (centres unmarked) [Compound 103],>10,
CC(C)CC(NC(=O)CNC(=O)C(=O)Cc1c[nH]c2ccccc12)C(=O)NC(Cc1ccccc1)C(=O)O (centres unmarked) [Compound 104],>10,
CC(C)CC(NC(=O)CCNC(=O)C(=O)Cc1c[nH]c2ccccc12)C(=O)NC(Cc1ccccc1)C(=O)O (centres unmarked) [Compound 105],>10,
CCCCC(NC(=O)C(=O)Cc1c[nH]c2ccccc12)C(=O)NC(CC(C)C)C(=O)NC(Cc1ccccc1)C(=O)O (centres unmarked) [Compound 106],>10,

SMILES,IC50 for the inhibition of the chymotrypsin-like activity of 20S proteasome [µg/mL],IC50 [µM]
CC(C)CC(NC(=O)C(Cc1ccccc1)NC(=O)C(=O)Cc1c[nH]c2ccccc12)C(=O)NC(Cc1ccccc1)C(=O)O (centres unmarked) [Compound 107],>10,
CC(C)CC(NC(=O)C(NC(=O)C(=O)Cc1c[nH]c2ccccc12)C(C)O)C(=O)NC(Cc1ccccc1)C(=O)O (centres unmarked) [Compound 108],>10,
CC(C)CC(NC(=O)C(C)NC(=O)C(=O)Cc1c[nH]c2ccccc12)C(=O)NC(Cc1ccccc1)C(=O)O (centres unmarked) [Compound 109],>10,
CC(C)CC(NC(=O)C(CC(=O)O)NC(=O)C(=O)Cc1c[nH]c2ccccc12)C(=O)NC(Cc1ccccc1)C(=O)O (centres unmarked) [Compound 110],>10,
CC(C)CC(NC(=O)C(NC(=O)C(=O)Cc1c[nH]c2ccccc12)C(C)C)C(=O)NC(Cc1ccccc1)C(=O)O (centres unmarked) [Compound 111],>10,
CC(C)CC(NC(=O)C(Cc1ccc(O)cc1)NC(=O)C(=O)Cc1c[nH]c2ccccc12)C(=O)NC(Cc1ccccc1)C(=O)O (centres unmarked) [Compound 113],>10,
CCCCC(NC(=O)C(CC(C)C)NC(=O)CNC(=O)C(=O)Cc1c[nH]c2ccccc12)C(=O)O (centres unmarked) [Compound 119],>10,
CCCCC(NC(=O)C(CC(C)C)NC(=O)CCNC(=O)C(=O)Cc1c[nH]c2ccccc12)C(=O)O (centres unmarked) [Compound 120],>10,
CCCCC(NC(=O)C(CC(C)C)NC(=O)C(CCCC)NC(=O)C(=O)Cc1c[nH]c2ccccc12)C(=O)O (centres unmarked) [Compound 121],>10,
CCCCC(NC(=O)C(CC(C)C)NC(=O)C(Cc1ccccc1)NC(=O)C(=O)Cc1c[nH]c2ccccc12)C(=O)O (centres unmarked) [Compound 122],>10,
CCCCC(NC(=O)C(CC(C)C)NC(=O)C(NC(=O)C(=O)Cc1c[nH]c2ccccc12)C(C)O)C(=O)O (centres unmarked) [Compound 123],>10,
CCCCC(NC(=O)C(CC(C)C)NC(=O)C(C)NC(=O)C(=O)Cc1c[nH]c2ccccc12)C(=O)O (centres unmarked) [Compound 124],>10,
CCCC[C@H](NC(=O)[C@@H](CC(C)C)NC(=O)[C@H](CC(=O)O)NC(=O)C(=O)Cc1c[nH]c2ccccc12)C(=O)O [Compound 125],,> 18.4
CCCCC(NC(=O)C(CC(C)C)NC(=O)C(NC(=O)C(=O)Cc1c[nH]c2ccccc12)C(C)C)C(=O)O (centres unmarked) [Compound 126],>10,
CCCCC(NC(=O)C(CC(C)C)NC(=O)C(CCC)NC(=O)C(=O)Cc1c[nH]c2ccccc12)C(=O)O (centres unmarked) [Compound 127],,> 18.9
CCCCC(NC(=O)C(CC(C)C)NC(=O)C(Cc1ccc(O)cc1)NC(=O)C(=O)Cc1c[nH]c2ccccc12)C(=O)O (centres unmarked) [Compound 128],>10,
CC(C)CC(NC(=O)CNC(=O)C(=O)Cc1c[nH]c2ccccc12)C(=O)NC(CC(=O)O)C(=O)O (centres unmarked) [Compound 134],>10,
CC(C)CC(NC(=O)CCNC(=O)C(=O)Cc1c[nH]c2ccccc12)C(=O)NC(CC(=O)O)C(=O)O (centres unmarked) [Compound 135],>10,
CCCCC(NC(=O)C(=O)Cc1c[nH]c2ccccc12)C(=O)NC(CC(C)C)C(=O)NC(CC(=O)O)C(=O)O (centres unmarked) [Compound 136],>10,
CC(C)CC(NC(=O)C(Cc1ccccc1)NC(=O)C(=O)Cc1c[nH]c2ccccc12)C(=O)NC(CC(=O)O)C(=O)O (centres unmarked) [Compound 137],>10,
CC(C)CC(NC(=O)C(NC(=O)C(=O)Cc1c[nH]c2ccccc12)C(C)O)C(=O)NC(CC(=O)O)C(=O)O (centres unmarked) [Compound 138],>10,
CC(C)CC(NC(=O)C(C)NC(=O)C(=O)Cc1c[nH]c2ccccc12)C(=O)NC(CC(=O)O)C(=O)O (centres unmarked) [Compound 139],>10,
CCC(NC(=O)C(=O)Cc1c[nH]c2ccccc12)C(=O)NC(CC(C)C)C(=O)NC(CC(=O)O)C(=O)O (centres unmarked) [Compound 140],>10,
CC(C)CC(NC(=O)C(NC(=O)C(=O)Cc1c[nH]c2ccccc12)C(C)C)C(=O)NC(CC(=O)O)C(=O)O (centres unmarked) [Compound 141],>10,
CCCC(NC(=O)C(=O)Cc1c[nH]c2ccccc12)C(=O)NC(CC(C)C)C(=O)NC(CC(=O)O)C(=O)O (centres unmarked) [Compound 142],>10,
